# Measured values taken from ChEMBL document CHEMBL1649371, “Isoxazolidinyl polycyclic aromatic hydrocarbons as DNA-intercalating antitumor agents” (Eur J Med Chem, 2011).
# Calls of active or inactive are those of the source. No cut-off for these calls is given here. Numbered stars: 1 amine (or outer) side, 2 acyl side, 3 side chain; on linkers, the order of the positions; unused ones are H or OH. Bridge positions count the residues as written; N and C are the ends. Square brackets hold non-standard residues; d marks the D form. Peptide text beside a SMILES is read from it. I, II: the chains in the order shown. Actinocin(1to9) = Cc1c2oc3c(C)ccc(C(=O)[*:2])c3nc-2c(C(=O)[*:1])c(N)c1=O; NMeV = CN[C@H](C(=O)O)C(C)C; Sar = CNCC(=O)O
# Columns and labels:
# [1] = tested on: Calf thymus DNA; experiment: Binding affinity to calf thymus DNA by UV spectral analysis; type: nucleic-acid assay; settings: Bos taurus
# [2] = tested on: U-937; experiment: Cytotoxicity against human U937 cells after 20 hrs by MTS assay; type: functional, cell-based; settings: U-937, 20 h
# [3] = tested on: HeLa; experiment: Cytotoxicity against human HeLa cells after 20 hrs by MTS assay; type: functional, cell-based
# [4] = tested on: A549; experiment: Cytotoxicity against human A549 cells by SRB assay; type: functional, cell-based
# [5] = tested on: THP-1; experiment: Cytotoxicity against human THP1 cells after 20 hrs by MTS assay; type: functional, cell-based; settings: THP-1, 20 h
# [6] = tested on: Vero; experiment: Cytotoxicity against african green monkey Vero cells after 20 hrs by MTS assay; type: cell-based; settings: Chlorocebus sabaeus
# [7] = tested on: MOLT-3; experiment: Cytotoxicity against human MOLT3 cells after 20 hrs by MTS assay; type: functional, cell-based; settings: MOLT-3, 20 h
# [8] = tested on: Nucleic Acid; experiment: Binding affinity to Escherichia coli phiX174 RF1 DNA assessed as DNA unwinding in presence of topoisomerase 1 after 30 mins by electrophoresis; type: nucleic-acid assay
# [9] = tested on: A549; experiment: Cytotoxicity against human A549 cells assessed as decrease of viable cells at 0.5 ug/ml after 8 hrs relative to control; type: functional
SMILES,Kb [1],IC50 [2] [µM],IC50 [3] [µM],IC50 [4] [µM],IC50 [5] [µM],IC50 [6] [µM],IC50 [7] [µM],Activity [8],Activity [9] [%]
CN1O[C@H](CO)C[C@@H]1c1ccc2ccc3cccc4ccc1c2c34,6.8 ×10³ /M,,,,,,,,
CN1O[C@H]2C(=O)NC(=O)[C@H]2[C@@H]1c1ccc2ccc3cccc4ccc1c2c34 (racemic),,130,135,83,102,150,95,,
CN1O[C@@H]2C(=O)NC(=O)[C@@H]2[C@@H]1c1ccc2ccc3cccc4ccc1c2c34 (racemic),,> 500,284,328,399,> 500,415,,
NC[C@@H]1C[C@H](c2cc3ccccc3c3ccccc23)N(Cc2ccccc2)O1 (racemic),,154,50,32,55,132,43,,
CN1O[C@H](CN)C[C@@H]1c1ccc2ccc3cccc4ccc1c2c34 (racemic),9.6 ×10⁴ /M,88,15,9,19,102,12,Active,
NC[C@H]1C[C@H](c2cc3ccccc3c3ccccc23)N(Cc2ccccc2)O1 (racemic),,112,45,35,61,140,50,,
CN1O[C@@H](CN)C[C@@H]1c1ccc2ccc3cccc4ccc1c2c34 (racemic),,80,15,11,18,110,17,,
"Cc1c2oc3c(C)ccc(C(=O)N[C@@H]4C(=O)N[C@H](C(C)C)C(=O)N5CCC[C@H]5C(=O)N(C)CC(=O)N(C)[C@@H](C(C)C)C(=O)O[C@@H]4C)c3nc-2c(C(=O)N[C@@H]2C(=O)N[C@H](C(C)C)C(=O)N3CCC[C@H]3C(=O)N(C)CC(=O)N(C)[C@@H](C(C)C)C(=O)O[C@@H]2C)c(N)c1=O [DACTINOMYCIN] (I: T[dV]P[Sar][NMeV] / II: T[dV]P[Sar][NMeV]; ester I:1-I:C, II:1-II:C; linker I:N-II:N via Actinocin(1to9))",,,,,,,≤ 1,,40
